# Measurements as given in patent US7112680B2, “Heterocyclic hydrazones for use as anti-cancer agents” (Austria Wirtschaftsservice Gesellschaft MIT Beschrankter …, priority 2000, dated 2006).
# Legend:
# [1] = test system: HeLa (epitheloid cervix carcinoma); assay: Inhibition of tumor cell growth, SRB-assay, HeLa; assay type: cell-based, human; details: Table 2, 72 hours, read-out: IC50 HeLa (converted)
# [2] = test system: Burkitt's lymphoma (CA 46, ATCC No. CRL 1648); assay: Inhibition of tumor cell growth, MTT-assay, Burkitt's lymphoma; assay type: cell-based, human; details: Table 2, 72 hours, read-out: IC50 Burkitts
# In short: (§1)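 Cells seeded at 3,000–10,000 (or ~10,000) per well in 96-well plates; compounds dissolved in DMSO. After treatment, samples fixed, washed and absorbance read on a microplate reader (SRB or MTT read-out according to the assay).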
# [3] = test system: HT-29 (colon adenocarcinoma); assay: Inhibition of tumor cell growth, SRB-assay, HT-29; assay type: cell-based, human; details: Table 2, 72 hours, read-out: IC50 HT-29 (converted)
# In short: as §1
# [4] = test system: up to 12 different tumor cells in permeable hoses; assay: Hollow fibre assay; assay type: in vivo; details: mice implanted with tumor cells in permeable hoses
# Experimental: Substances Ib-11 and Ib-24 were also tested in the so-called hollow fibre assay for their anti-tumor activity. For this purpose, mice were implanted with up to 12 different tumor cells in permeable hoses and treated with the compounds according to the invention.
# [5] = test system: CCRF-CEM (acute lymphoblastic leukemia); assay: Inhibition of tumor cell growth, MTT-assay, CCRF-CEM; assay type: cell-based, human; details: Table 2, 72 hours
# MEXF 276L (melanoma) = assay: Inhibition of tumor cell growth, SRB-assay, MEXF 276L; assay type: cell-based, human; details: Table 2, 72 hours, read-out: IC50 MEXF276L
# Experimental: The KB cell lines were grown in Dulbecco's modified Eagle's medium (4,5 g glucose/l). To the cultures of KB-C1 cells 1 μg of colchicine/ml, and to the hydroxyurea-resistant KB-HU cells 1 mM hydroxyurea was added every other week. […] 3,000 - 10,000 cells in 200 μl medium were seeded per well into 96-well plates. […] Approximately 10,000 cells per 100 μl were seeded in 96-well plates. […] The substances were dissolved in dimethylsulfoxide (DMSO). […] Subsequently, the samples were fixed, washed, and the absorption was determined by a microplate reader.
IC50 [1] [nM],IC50 [2] [nM],IC50 [3] [nM],IC50 [5] [nM],IC50 (MEXF 276L (melanoma)) [nM],Compound,anti-tumor activity in hollow fibre assay [4]
1710,1320,710,900,2130,CC(=NNc1nc2ccccc2[nH]1)c1cnccn1 [Ib-11],exhibit anti-tumor activity
63,25,230,130,650,CC(=NNc1nc2ccccc2o1)c1cc2ccccc2cn1 [Ib-24],exhibit anti-tumor activity
